According to US6737383B1, “Herbicidal oxadiazolidines” (priority 1999, dated 2004):

Legend:
bedstraw = test: Test B pre/postemergence bedstraw; format: in vivo, Galium aparine
In short: (§1)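 Response is a visual 0-to-10 score relative to untreated plants, where 0 means no effect and 10 means complete control, taken twelve to sixteen days after application. Treatments went onto soil at planting and onto foliage of 1- to 4-leaf plants, using a surfactant-containing non-phytotoxic solvent.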

blackgrass = test: Test B pre/postemergence blackgrass; format: in vivo, Alopecurus myosuroides
In short: as §1

surinam grass = test: Test B pre/postemergence surinam grass; format: in vivo, Brachiaria decumbens
In short: as §1

corn = test: Test B pre/postemergence corn; format: in vivo, Zea mays
In short: as §1

crabgrass = test: Test B pre/postemergence crabgrass; format: in vivo, Digitaria sanguinalis
In short: as §1

giant foxtail = test: Test B pre/postemergence giant foxtail; format: in vivo, Setaria faberii
In short: as §1

morningglory = test: Test B pre/postemergence morningglory; format: in vivo, Ipomoea hederacea
In short: as §1

pigweed = test: Test B pre/postemergence pigweed; format: in vivo, Amaranthus retroflexus
In short: as §1

rape = test: Test B pre/postemergence rape; format: in vivo, Brassica napus
In short: as §1

sugar beet = test: Test B pre/postemergence sugar beet; format: in vivo, Beta vulgaris
In short: as §1

wheat = test: Test B pre/postemergence wheat; format: in vivo, Triticum aestivum
In short: as §1

wild oat = test: Test B pre/postemergence wild oat; format: in vivo, Avena fatua
In short: as §1

purple nutsedge = test: Test B pre/postemergence purple nutsedge; format: in vivo, Cyperus rotundus
In short: as §1

rice = test: Test B flood test rice; format: in vivo, Oryza sativa
In short: (§2)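 Read-out is a visual response score from 0 (no effect) to 10 (complete control), assigned by comparison with untreated controls. Treatment was applied at the 2-leaf stage, and plants stayed in the greenhouse for twelve to sixteen days before scoring.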

smallflower flatsedge = test: Test B flood test smallflower flatsedge; format: in vivo, Cyperus difformis
In short: as §2

bamyardgrass = test: Test B flood test barnyardgrass; format: in vivo, Echinochloa crus-galli
In short: as §2

[1] = Postemergence, Rate 62 g/ha, scale 0 to 10, 0 is no effect, 10 is complete control
[2] = Postemergence, Rate 250 g/ha, scale 0 to 10, 0 no effect, 10 complete control
[3] = Preemergence, Rate 62 g/ha, scale 0 to 10, 0 is no effect, 10 is complete control
[4] = Preemergence, Rate 125 g/ha, scale 0 to 10 (0 no effect, 10 complete control)
[5] = Preemergence, Rate 250 g/ha, scale of 0 to 10 where 0 is no effect and 10 is complete control
[6] = Preemergence, Rate 500 g/ha, scale 0 (no effect) to 10 (complete control)
[7] = Rate 125 g/ha, Postemergence, scale 0 to 10, 0 no effect, 10 complete control
[8] = Rate 500 g/ha, Postemergence, 0 to 10 scale (0 no effect, 10 complete control)
[9] = Rate 125 g/ha, Postemergence section (flood test species), scale 0 to 10, 0 no effect, 10 complete control
[10] = Rate 500 g/ha, Postemergence section of Table B, 0 to 10 scale (0 no effect, 10 complete control)
[11] = flood test, listed under Postemergence, Rate 250 g/ha, scale 0 to 10, 0 no effect, 10 complete control

Compound: Cc1ccccc1-n1c(=O)on(C(=O)N(c2ccc([N+](=O)[O-])cc2)C(C)C)c1=O [Compound 44]
- Bedstraw plant response rating (bedstraw; [1]): 0
- Bedstraw plant response rating (bedstraw; [2]): 0
- Plant response rating, Bedstraw (bedstraw; [3]): 0
- Plant response rating, Bedstraw (bedstraw; [4]): 0
- Plant response rating, Bedstraw (bedstraw; [5]): 0
- Bedstraw plant response rating (bedstraw; [6]): 0
- Bedstraw plant response rating (bedstraw; [7]): 0
- Bedstraw plant response rating (bedstraw; [8]): 0
- Blackgrass plant response rating (blackgrass; [1]): 0
- Blackgrass plant response rating (blackgrass; [2]): 0
- Plant response rating, Blackgrass (blackgrass; [3]): 0
- Plant response rating, Blackgrass (blackgrass; [4]): 0
- Plant response rating, Blackgrass (blackgrass; [5]): 0
- Blackgrass plant response rating (blackgrass; [6]): 1
- Blackgrass plant response rating (blackgrass; [7]): 0
- Blackgrass plant response rating (blackgrass; [8]): 0
- B. signalgrass plant response rating (surinam grass; [1]): 0
- B. signalgrass plant response rating (surinam grass; [2]): 0
- Plant response rating, B. signalgrass (surinam grass; [3]): 0
- Plant response rating, B. signalgrass (surinam grass; [4]): 0
- Plant response rating, B. signalgrass (surinam grass; [5]): 0
- B. signalgrass plant response rating (surinam grass; [6]): 0
- B. signalgrass plant response rating (surinam grass; [7]): 0
- B. signalgrass plant response rating (surinam grass; [8]): 0
- Corn plant response rating (corn; [1]): 0
- Corn plant response rating (corn; [2]): 0
- Plant response rating, Corn (corn; [3]): 0
- Plant response rating, Corn (corn; [4]): 0
- Plant response rating, Corn (corn; [5]): 0
- Corn plant response rating (corn; [6]): 0
- Corn plant response rating (corn; [7]): 0
- Corn plant response rating (corn; [8]): 0
- Crabgrass plant response rating (crabgrass; [1]): 0
- Crabgrass plant response rating (crabgrass; [2]): 0
- Plant response rating, Crabgrass (crabgrass; [3]): 0
- Plant response rating, Crabgrass (crabgrass; [4]): 0
- Plant response rating, Crabgrass (crabgrass; [5]): 0
- Crabgrass plant response rating (crabgrass; [6]): 2
- Crabgrass plant response rating (crabgrass; [7]): 0
- Crabgrass plant response rating (crabgrass; [8]): 0
- Giant foxtail plant response rating (giant foxtail; [1]): 0
- Giant foxtail plant response rating (giant foxtail; [2]): 0
- Plant response rating, Giant foxtail (giant foxtail; [3]): 0
- Plant response rating, Giant foxtail (giant foxtail; [4]): 0
- Plant response rating, Giant foxtail (giant foxtail; [5]): 0
- Giant foxtail plant response rating (giant foxtail; [6]): 1
- Giant foxtail plant response rating (giant foxtail; [7]): 0
- Giant foxtail plant response rating (giant foxtail; [8]): 0
- Morningglory plant response rating (morningglory; [1]): 0
- Morningglory plant response rating (morningglory; [2]): 0
- Plant response rating, Morningglory (morningglory; [3]): 0
- Plant response rating, Morningglory (morningglory; [4]): 0
- Plant response rating, Morningglory (morningglory; [5]): 0
- Morningglory plant response rating (morningglory; [6]): 0
- Morningglory plant response rating (morningglory; [7]): 0
- Morningglory plant response rating (morningglory; [8]): 1
- Redroot pigweed plant response rating (pigweed; [1]): 0
- Redroot pigweed plant response rating (pigweed; [2]): 0
- Plant response rating, Redroot pigweed (pigweed; [3]): 0
- Plant response rating, Redroot pigweed (pigweed; [4]): 0
- Plant response rating, Redroot pigweed (pigweed; [5]): 0
- Redroot pigweed plant response rating (pigweed; [6]): 0
- Redroot pigweed plant response rating (pigweed; [7]): 0
- Redroot pigweed plant response rating (pigweed; [8]): 0
- Rape plant response rating (rape; [1]): 0
- Rape plant response rating (rape; [2]): 0
- Plant response rating, Rape (rape; [3]): 0
- Plant response rating, Rape (rape; [4]): 0
- Plant response rating, Rape (rape; [5]): 0
- Rape plant response rating (rape; [6]): 0
- Rape plant response rating (rape; [7]): 0
- Rape plant response rating (rape; [8]): 0
- Sugarbeets plant response rating (sugar beet; [1]): 0
- Sugarbeets plant response rating (sugar beet; [2]): 0
- Plant response rating, Sugarbeets (sugar beet; [3]): 0
- Plant response rating, Sugarbeets (sugar beet; [4]): 0
- Plant response rating, Sugarbeets (sugar beet; [5]): 0
- Sugarbeets plant response rating (sugar beet; [6]): 0
- Sugarbeets plant response rating (sugar beet; [7]): 0
- Wheat plant response rating (wheat; [1]): 0
- Wheat plant response rating (wheat; [2]): 0
- Plant response rating, Wheat (wheat; [3]): 0
- Plant response rating, Wheat (wheat; [4]): 0
- Plant response rating, Wheat (wheat; [5]): 0
- Wheat plant response rating (wheat; [6]): 0
- Wheat plant response rating (wheat; [7]): 0
- Wild oats plant response rating (wild oat; [1]): 0
- Wild oats plant response rating (wild oat; [2]): 0
- Plant response rating, Wild oats (wild oat; [4]): 0
- Plant response rating, Wild oats (wild oat; [5]): 0
- Wild oats plant response rating (wild oat; [6]): 0
- Wild oats plant response rating (wild oat; [7]): 0
- Nutsedge plant response rating (purple nutsedge; [1]): 0
- Nutsedge plant response rating (purple nutsedge; [2]): 0
- Plant response rating, Nutsedge (purple nutsedge; [3]): 0
- Plant response rating, Nutsedge (purple nutsedge; [4]): 0
- Plant response rating, Nutsedge (purple nutsedge; [5]): 0
- Nutsedge plant response rating (purple nutsedge; [6]): 0
- Nutsedge plant response rating (purple nutsedge; [7]): 0
- Nutsedge plant response rating (purple nutsedge; [8]): 0
- Rice plant response rating (rice; [1]): 0
- Rice plant response rating (rice; [9]): 0
- Rice plant response rating (rice; [10]): 0
- Rice plant response rating (rice; [11]): 0
- S. Flatsedge plant response rating (smallflower flatsedge; [1]): 0
- S. Flatsedge plant response rating (smallflower flatsedge; [9]): 0
- S. Flatsedge plant response rating (smallflower flatsedge; [11]): 0
- Barnyardgrass plant response rating (bamyardgrass; [1]): 0
- Barnyardgrass plant response rating (bamyardgrass; [9]): 0
- Barnyardgrass plant response rating (bamyardgrass; [10]): 0
- Barnyardgrass plant response rating (bamyardgrass; [11]): 0
